# Legend:
# [1] = tested on: KYSE-270 (Esophageal Squamous Cell Carcinoma); assay: Bliss excess, mean over the matrix (fraction); higher = more synergy
# Outline: (§1)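 Bliss excess equals the observed combination effect minus the expected value EA + EB − EA·EB, where EA and EB are the effects of each agent alone. Combination Emax is the second-highest inhibition within the matrix. Inhibition was scaled from CellTiter-Glo 2.0 luminescence, with 0 set by vehicle wells and 1 by blank wells, after 72 hours of two-drug dosing of cells plated in 1536-well plates.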
# [2] = tested on: SK-GT-4 (Esophageal Adenocarcinoma); assay: as above
# Outline: as §1
# [3] = tested on: CW-2 (Colorectal Carcinoma); assay: as above
# Outline: as §1
# [4] = tested on: KU812 (Chronic Myelogenous Leukemia); assay: as above
# Outline: as §1
# [5] = tested on: OCI-AML3 (Acute Myeloid Leukemia); assay: as above
# Outline: as §1
# [6] = tested on: NCI-H520 (Squamous Cell Lung Carcinoma); assay: as above
# Outline: as §1
# M059J (Glioblastoma) [7] = assay: as above
# Outline: as §1
# [8] = tested on: DMS-114 (Small Cell Lung Carcinoma); assay: as above
# Outline: as §1
# [9] = tested on: MN-60 (B-Lymphoblastic Leukemia); assay: as above
# Outline: as §1
# SJSA-1 (Osteosarcoma) [10] = assay: as above
# Outline: as §1
# [11] = tested on: NCI-H526 (Small Cell Lung Carcinoma); assay: as above
# Outline: as §1
# [12] = tested on: NCCIT (Other Solid Carcinomas); assay: as above
# Outline: as §1
# [13] = tested on: ST486 (Burkitt's Lymphoma); assay: as above
# Outline: as §1
# [14] = tested on: T-T (Esophageal Squamous Cell Carcinoma); assay: as above
# Outline: as §1
# [15] = tested on: COR-L279 (Small Cell Lung Carcinoma); assay: as above
# Outline: as §1
# NCI-H2731 (Mesothelioma) [16] = assay: as above
# Outline: as §1
# [17] = tested on: VMRC-RCZ (Kidney Carcinoma); assay: as above
# Outline: as §1
# [18] = tested on: NCI-H929 (Plasma Cell Myeloma); assay: as above
# Outline: as §1
# [19] = tested on: NCI-H3122 (Lung Adenocarcinoma); assay: as above
# Outline: as §1
# [20] = tested on: MOG-G-CCM (Low Grade Glioma); assay: as above
# Outline: as §1
# [21] = tested on: KYSE-270 (Esophageal Squamous Cell Carcinoma); assay: combination Emax (second highest fraction inhibited in the dose matrix, 72 h); higher = more inhibition; extreme values may be limits of the assay
# Outline: as §1
# [22] = tested on: SK-GT-4 (Esophageal Adenocarcinoma); assay: as above
# Outline: as §1
# [23] = tested on: CW-2 (Colorectal Carcinoma); assay: as above
# Outline: as §1
# [24] = tested on: KU812 (Chronic Myelogenous Leukemia); assay: as above
# Outline: as §1
# [25] = tested on: OCI-AML3 (Acute Myeloid Leukemia); assay: as above
# Outline: as §1
# [26] = tested on: NCI-H520 (Squamous Cell Lung Carcinoma); assay: as above
# Outline: as §1
# M059J (Glioblastoma) [27] = assay: as above
# Outline: as §1
# [28] = tested on: DMS-114 (Small Cell Lung Carcinoma); assay: as above
# Outline: as §1
# [29] = tested on: MN-60 (B-Lymphoblastic Leukemia); assay: as above
# Outline: as §1
# SJSA-1 (Osteosarcoma) [30] = assay: as above
# Outline: as §1
# [31] = tested on: NCI-H526 (Small Cell Lung Carcinoma); assay: as above
# Outline: as §1
# [32] = tested on: NCCIT (Other Solid Carcinomas); assay: as above
# Outline: as §1
# [33] = tested on: ST486 (Burkitt's Lymphoma); assay: as above
# Outline: as §1
# [34] = tested on: T-T (Esophageal Squamous Cell Carcinoma); assay: as above
# Outline: as §1
# [35] = tested on: COR-L279 (Small Cell Lung Carcinoma); assay: as above
# Outline: as §1
# NCI-H2731 (Mesothelioma) [36] = assay: as above
# Outline: as §1
# [37] = tested on: VMRC-RCZ (Kidney Carcinoma); assay: as above
# Outline: as §1
# [38] = tested on: NCI-H929 (Plasma Cell Myeloma); assay: as above
# Outline: as §1
# [39] = tested on: NCI-H3122 (Lung Adenocarcinoma); assay: as above
# Outline: as §1
# [40] = tested on: MOG-G-CCM (Low Grade Glioma); assay: as above
# Outline: as §1
# [41] = tested on: KP-3 (Pancreatic Carcinoma); assay: Bliss excess, mean over the matrix (fraction); higher = more synergy
# Outline: as §1
# [42] = tested on: KP-3 (Pancreatic Carcinoma); assay: combination Emax (second highest fraction inhibited in the dose matrix, 72 h); higher = more inhibition; extreme values may be limits of the assay
# Outline: as §1
structure (smiles),measurement,setting,value
"CN(CCO)CC[C@H](CSc1ccccc1)Nc1ccc(S(=O)(=O)NC(=O)c2ccc(N3CCC([C@@H](O)c4ccccc4-c4ccc(Cl)cc4)CC3)cc2)cc1S(=O)(=O)C(F)(F)F [AZD4320] + Nc1ccn([C@@H]2O[C@H](CO)[C@@H](O)C2(F)F)c(=O)n1 [Gemcitabine] (first compound max 1 µM, 7x7, partner max 0.3 µM)",Bliss excess,[1],-0.0293
same,Bliss excess,[2],-0.0288
same,Bliss excess,[3],-0.058
same,Bliss excess,[4],-0.0788
same,Bliss excess,[5],0.0034
same,Bliss excess,[6],-0.0178
same,Bliss excess,M059J (Glioblastoma) [7],-0.0021
same,Bliss excess,[8],0.0444
same,Bliss excess,[9],-0.0618
same,Bliss excess,SJSA-1 (Osteosarcoma) [10],0.0439
same,Bliss excess,[11],0.0952
same,Bliss excess,[12],-0.0058
same,Bliss excess,[13],-0.0194
same,Bliss excess,[14],0.0546
same,Bliss excess,[15],0.0843
same,Bliss excess,NCI-H2731 (Mesothelioma) [16],0.0222
same,Bliss excess,[17],0.0103
same,Bliss excess,[18],-0.0176
same,Bliss excess,[19],-0.0298
same,Bliss excess,[20],-0.0629
same,combination Emax,[21],0.89
same,combination Emax,[22],0.31
same,combination Emax,[23],0.557
same,combination Emax,[24],0.954
same,combination Emax,[25],0.984
same,combination Emax,[26],0.894
same,combination Emax,M059J (Glioblastoma) [27],0.837
same,combination Emax,[28],0.524
same,combination Emax,[29],0.493
same,combination Emax,SJSA-1 (Osteosarcoma) [30],0.952
same,combination Emax,[31],0.993
same,combination Emax,[32],0.187
same,combination Emax,[33],0.972
same,combination Emax,[34],0.476
same,combination Emax,[35],1
same,combination Emax,NCI-H2731 (Mesothelioma) [36],0.44
same,combination Emax,[37],0.589
same,combination Emax,[38],0.9
same,combination Emax,[39],0.846
same,combination Emax,[40],0.597
"C[C@@H]1COCCN1c1cc(C2([S@](C)(=N)=O)CC2)nc(-c2ccnc3[nH]ccc23)n1 [AZD6738] + C1CC(C1)(C(=O)[O-])C(=O)[O-].N.N.[Pt+2] [Carboplatin] (first compound max 10 µM, 7x7, partner max 10 µM)",Bliss excess,[1],0.0445
same,Bliss excess,[2],-0.0516
same,Bliss excess,[3],-0.0212
same,Bliss excess,[4],-0.0691
same,Bliss excess,[5],-0.0326
same,Bliss excess,[6],-0.0017
same,Bliss excess,[41],-0.0087
same,Bliss excess,M059J (Glioblastoma) [7],-0.0647
same,Bliss excess,[8],-0.095
same,Bliss excess,[9],-0.119
same,Bliss excess,SJSA-1 (Osteosarcoma) [10],-0.0152
same,Bliss excess,[11],-0.0076
same,Bliss excess,[12],-0.0274
same,Bliss excess,[13],-0.0501
same,Bliss excess,[14],-0.0661
same,Bliss excess,[15],-0.0178
same,Bliss excess,NCI-H2731 (Mesothelioma) [16],-0.0109
same,Bliss excess,[17],-0.0249
same,Bliss excess,[18],-0.0536
same,Bliss excess,[19],-0.0999
same,Bliss excess,[20],-0.0204
same,combination Emax,[21],0.779
same,combination Emax,[22],0.463
same,combination Emax,[23],0.537
same,combination Emax,[24],0.817
same,combination Emax,[25],0.854
same,combination Emax,[26],0.674
same,combination Emax,[42],0.264
same,combination Emax,M059J (Glioblastoma) [27],0.502
same,combination Emax,[28],0.4
same,combination Emax,[29],0.638
same,combination Emax,SJSA-1 (Osteosarcoma) [30],0.477
same,combination Emax,[31],0.564
same,combination Emax,[32],0.531
same,combination Emax,[33],0.865
same,combination Emax,[34],0.26
same,combination Emax,[35],0.635
same,combination Emax,NCI-H2731 (Mesothelioma) [36],0.399
same,combination Emax,[37],0.392
same,combination Emax,[38],0.801
same,combination Emax,[39],0.674
same,combination Emax,[40],0.536
